Consider 15 molecules from patent US12195482B1 (Arcus Biosciences, Inc., priority 2022, dated 2025).

The target in assay [1] is T1, recombinant human MER (Homo sapiens, UniProt Q12866).
T1 construct: purchased Invitrogen
T1 sequence (Q12866 21-999): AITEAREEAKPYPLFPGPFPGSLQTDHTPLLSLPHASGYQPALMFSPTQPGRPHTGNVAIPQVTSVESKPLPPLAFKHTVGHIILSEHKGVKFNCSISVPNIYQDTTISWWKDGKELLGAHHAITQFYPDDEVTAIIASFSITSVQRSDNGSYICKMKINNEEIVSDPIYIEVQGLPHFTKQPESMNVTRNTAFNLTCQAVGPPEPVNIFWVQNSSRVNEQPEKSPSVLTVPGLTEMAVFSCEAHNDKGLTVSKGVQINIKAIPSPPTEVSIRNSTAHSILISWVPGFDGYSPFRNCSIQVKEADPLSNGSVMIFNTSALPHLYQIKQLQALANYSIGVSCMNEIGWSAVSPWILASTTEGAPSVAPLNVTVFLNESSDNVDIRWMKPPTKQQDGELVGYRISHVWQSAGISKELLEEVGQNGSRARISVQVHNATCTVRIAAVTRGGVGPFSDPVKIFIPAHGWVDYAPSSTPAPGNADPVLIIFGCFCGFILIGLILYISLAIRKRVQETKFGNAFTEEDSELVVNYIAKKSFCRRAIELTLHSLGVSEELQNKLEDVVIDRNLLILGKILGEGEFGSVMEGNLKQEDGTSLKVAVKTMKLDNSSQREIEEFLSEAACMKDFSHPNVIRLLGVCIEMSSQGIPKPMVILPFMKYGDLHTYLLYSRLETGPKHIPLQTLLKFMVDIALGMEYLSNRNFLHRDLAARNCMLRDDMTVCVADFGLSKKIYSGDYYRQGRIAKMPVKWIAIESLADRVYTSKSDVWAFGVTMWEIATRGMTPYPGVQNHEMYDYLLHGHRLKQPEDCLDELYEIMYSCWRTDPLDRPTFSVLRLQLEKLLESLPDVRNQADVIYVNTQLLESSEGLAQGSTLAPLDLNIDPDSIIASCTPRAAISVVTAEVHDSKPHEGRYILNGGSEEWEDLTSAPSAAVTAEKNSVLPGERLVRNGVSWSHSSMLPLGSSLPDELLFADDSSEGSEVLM
The experiment in a line: Biochemical potency, HTRF KinEASE-TK kinase assay. Conditions: 1 nM MER, 700 μM ATP. A digest of the protocol:
(§1)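 Phosphorylation of a biotinylated tyrosine-kinase peptide (800 nM) by AXL (5 nM) or TYRO3/MER (1 nM) is measured at 700 µM ATP after 2 h at room temperature, following 1 h enzyme–compound preincubation. Signal is the time-resolved FRET ratio, converted to percent activity.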

Assay [2] addresses T2, recombinant human TYRO3 (Homo sapiens, UniProt Q06418).
T2 construct: purchased Invitrogen
T2 sequence (Q06418 41-890): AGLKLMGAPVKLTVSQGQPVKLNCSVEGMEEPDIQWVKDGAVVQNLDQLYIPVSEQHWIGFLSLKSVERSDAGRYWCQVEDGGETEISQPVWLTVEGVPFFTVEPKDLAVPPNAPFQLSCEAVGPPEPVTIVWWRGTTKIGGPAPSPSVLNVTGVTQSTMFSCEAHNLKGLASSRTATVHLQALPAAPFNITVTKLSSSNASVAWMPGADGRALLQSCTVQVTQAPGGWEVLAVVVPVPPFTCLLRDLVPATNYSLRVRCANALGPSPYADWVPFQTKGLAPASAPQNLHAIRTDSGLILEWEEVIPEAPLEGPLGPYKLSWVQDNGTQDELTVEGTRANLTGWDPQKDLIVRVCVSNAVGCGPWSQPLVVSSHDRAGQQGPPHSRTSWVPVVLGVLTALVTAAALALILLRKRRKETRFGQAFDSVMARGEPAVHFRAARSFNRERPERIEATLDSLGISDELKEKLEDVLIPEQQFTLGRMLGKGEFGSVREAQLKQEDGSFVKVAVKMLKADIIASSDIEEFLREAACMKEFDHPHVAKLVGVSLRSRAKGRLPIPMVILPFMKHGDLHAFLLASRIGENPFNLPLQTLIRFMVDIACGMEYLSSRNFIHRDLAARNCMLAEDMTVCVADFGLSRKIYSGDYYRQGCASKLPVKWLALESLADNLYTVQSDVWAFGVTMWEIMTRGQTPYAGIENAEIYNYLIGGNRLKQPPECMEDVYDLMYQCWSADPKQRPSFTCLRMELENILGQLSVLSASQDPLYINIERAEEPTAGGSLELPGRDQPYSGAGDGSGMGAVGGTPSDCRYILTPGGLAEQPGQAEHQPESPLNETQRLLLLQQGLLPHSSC
The experiment in a line: Biochemical potency, HTRF KinEASE-TK kinase assay. Particulars: 1 nM TYRO3, 700 μM ATP. A digest of the protocol: as §1
(In general: In TR-FRET formats the signal depends on donor and acceptor labels being close together.)

Where only a bound is given, the exact number is not on record here.

For orientation: IC50 means the midpoint of a concentration-inhibition curve. As for `c1ccc(-n2cc(-c3n[nH]c4ncc(-c5ccc6c(c5)CC[C@@H](N5C7COCC5C7)CC6)cc34)cn2)nc1` [Example 168, 6-[(7S)-2-{3-[1-(Pyridin-2-yl)-1H-pyrazol-4-yl]-1H-pyrazolo[3,4-b]pyridin-5-yl}-6,7,8,9-tetrahydro-5H-benzo[7]annulen-7-yl]-3-oxa-6-azabicyclo[3.1.1]heptane], the IC50 in assay [1] and in assay [2] was 100 to 1000 nM throughout.
Take `Cn1cnnc1-c1ccc(-c2n[nH]c3ncc(-c4ccc5c(c4)CC[C@@H](N4C6COCC4C6)CC5)cc23)cc1` [Example 169, 6-[(7S)-2-{3-[4-(4-Methyl-4H-1,2,4-triazol-3-yl)phenyl]-1H-pyrazolo[3,4-b]pyridin-5-yl}-6,7,8,9-tetrahydro-5H-benzo[7]annulen-7-yl]-3-oxa-6-azabicyclo[3.1.1]heptane]: the IC50 in assay [1] and in assay [2] was below 100 nM each time.
On to `CN(C)C(=O)c1ccccc1-c1ccc(-c2c[nH]c3ncc(-c4ccc5c(c4)CC[C@@H](N4C6COCC4C6)CC5)cc23)cn1` [Example 170, N,N-Dimethyl-2-(5-{5-[(7S)-7-{3-oxa-6-azabicyclo[3.1.1]heptan-6-yl}-6,7,8,9-tetrahydro-5H-benzo[7]annulen-2-yl]-1H-pyrrolo[2,3-b]pyridin-3-yl}pyridin-2-yl)benzamide], for which the half-maximal inhibitory concentration (IC50) in assay [1] and in assay [2] was 100 to 1000 nM throughout.
Turning to `O=C(c1cccnc1-c1ccc(-c2c[nH]c3ncc(-c4ccc5c(c4)CC[C@@H](N4C6COCC4C6)CC5)cc23)cc1)N1CCCC1` [Example 171, 6-[(7S)-2-(3-{4-[3-(Pyrrolidine-1-carbonyl)pyridin-2-yl]phenyl}-1H-pyrrolo[2,3-b]pyridin-5-yl)-6,7,8,9-tetrahydro-5H-benzo[7]annulen-7-yl]-3-oxa-6-azabicyclo[3.1.1]heptane], the IC50 in assay [1] and in assay [2] was 100 to 1000 nM throughout.
For the molecule `Cc1cccnc1-c1ccc(-c2c[nH]c3ncc(-c4ccc5c(c4)CC[C@@](C)(N4CCC[C@H]4C)CC5)cc23)cc1` [Example 172, 3-Methyl-2-(4-{5-[(7S)-7-methyl-7-[(2R)-2-methylpyrrolidin-1-yl]-6,7,8,9-tetrahydro-5H-benzo[7]annulen-2-yl]-1H-pyrrolo[2,3-b]pyridin-3-yl}phenyl)pyridine], the IC50 in assay [1] and in assay [2] was below 100 nM throughout.
Regarding `Cc1cccnc1-c1ccc(-c2c[nH]c3ncc(-c4ccc5c(c4)CC[C@@H](N4CCCC4)CC5)cc23)cc1` [Example 173, 3-Methyl-2-(4-{5-[(7S)-7-(pyrrolidin-1-yl)-6,7,8,9-tetrahydro-5H-benzo[7]annulen-2-yl]-1H-pyrrolo[2,3-b]pyridin-3-yl}phenyl)pyridine], the IC50 in assay [1] and in assay [2] was below 100 nM throughout.
With `Cc1cncnc1-c1ccc(-c2n[nH]c3ncc(-c4ccc5c(c4)CC[C@@H](N4C6COCC4C6)CC5)cc23)cc1` [Example 174, 6-[(7S)-2-{3-[4-(5-Methylpyrimidin-4-yl)phenyl]-1H-pyrazolo[3,4-b]pyridin-5-yl}-6,7,8,9-tetrahydro-5H-benzo[7]annulen-7-yl]-3-oxa-6-azabicyclo[3.1.1]heptane], the IC50 in assay [1] and in assay [2] was below 100 nM throughout.
With `Cc1nccnc1-c1ccc(-c2n[nH]c3ncc(-c4ccc5c(c4)CC[C@@H](N4C6COCC4C6)CC5)cc23)cc1` [Example 175, 6-[(7S)-2-{3-[4-(3-Methylpyrazin-2-yl)phenyl]-1H-pyrazolo[3,4-b]pyridin-5-yl}-6,7,8,9-tetrahydro-5H-benzo[7]annulen-7-yl]-3-oxa-6-azabicyclo[3.1.1]heptane], the IC50 in assay [1] and in assay [2] was 100 to 1000 nM throughout.
`Cc1ccnnc1-c1ccc(-c2n[nH]c3ncc(-c4ccc5c(c4)CC[C@@H](N4C6COCC4C6)CC5)cc23)cc1` [Example 176, 6-[(7S)-2-{3-[4-(4-Methylpyridazin-3-yl)phenyl]-1H-pyrazolo[3,4-b]pyridin-5-yl}-6,7,8,9-tetrahydro-5H-benzo[7]annulen-7-yl]-3-oxa-6-azabicyclo[3.1.1]heptane]: the IC50 in assay [1] and in assay [2] was below 100 nM each time.
For `O=C1CCCN1c1cccnc1-c1ccc(-c2n[nH]c3ncc(-c4ccc5c(c4)CC[C@@H](N4C6COCC4C6)CC5)cc23)cc1` [Example 177, 1-[2-(4-{5-[(7S)-7-{3-Oxa-6-azabicyclo[3.1.1]heptan-6-yl}-6,7,8,9-tetrahydro-5H-benzo[7]annulen-2-yl]-1H-pyrazolo[3,4-b]pyridin-3-yl}phenyl)pyridin-3-yl]pyrrolidin-2-one], the half-maximal inhibitory concentration (IC50) in assay [1] and in assay [2] was 100 to 1000 nM each time.
Turning to `c1cnc(-c2ccc(-c3c[nH]c4ncc(-c5ccc6c(c5)CC[C@@H](N5C7COCC5C7)CC6)cc34)cc2)c(C2CC2)c1` [Example 178, 6-[(7S)-2-{3-[4-(3-Cyclopropylpyridin-2-yl)phenyl]-1H-pyrrolo[2,3-b]pyridin-5-yl}-6,7,8,9-tetrahydro-5H-benzo[7]annulen-7-yl]-3-oxa-6-azabicyclo[3.1.1]heptane], the IC50 in assay [1] and in assay [2] was 100 to 1000 nM in each case.
Regarding `c1cnc(-c2ccc(-c3n[nH]c4ncc(-c5ccc6c(c5)CC[C@@H](N5C7COCC5C7)CC6)cc34)cc2)c(C2CC2)c1` [Example 179, 6-[(7S)-2-{3-[4-(3-Cyclopropylpyridin-2-yl)phenyl]-1H-pyrazolo[3,4-b]pyridin-5-yl}-6,7,8,9-tetrahydro-5H-benzo[7]annulen-7-yl]-3-oxa-6-azabicyclo[3.1.1]heptane], the IC50 in assay [1] and in assay [2] was 100 to 1000 nM throughout.
In the case of `COCCOc1cccnc1-c1ccc(-c2n[nH]c3ncc(-c4ccc5c(c4)CC[C@@H](N4C6COCC4C6)CC5)cc23)cc1` [Example 180, 6-[(7S)-2-(3-{4-[3-(2-Methoxyethoxy)pyridin-2-yl]phenyl}-1H-pyrazolo[3,4-b]pyridin-5-yl)-6,7,8,9-tetrahydro-5H-benzo[7]annulen-7-yl]-3-oxa-6-azabicyclo[3.1.1]heptane], the IC50 in assay [1] is 100 to 1000 nM; in assay [2], below 100 nM.
For `CCOc1cccnc1-c1ccc(-c2n[nH]c3ncc(-c4ccc5c(c4)CC[C@@H](N4C6COCC4C6)CC5)cc23)cc1` [Example 181, 6-[(7S)-2-{3-[4-(3-Ethoxypyridin-2-yl)phenyl]-1H-pyrazolo[3,4-b]pyridin-5-yl}-6,7,8,9-tetrahydro-5H-benzo[7]annulen-7-yl]-3-oxa-6-azabicyclo[3.1.1]heptane], in that order: 100 to 1000 nM and 100 to 1000 nM.
With `CCc1cccnc1-c1ccc(-c2n[nH]c3ncc(-c4ccc5c(c4)CC[C@@H](N4C6COCC4C6)CC5)cc23)cc1` [Example 182, 6-[(7S)-2-{3-[4-(3-Ethylpyridin-2-yl)phenyl]-1H-pyrazolo[3,4-b]pyridin-5-yl}-6,7,8,9-tetrahydro-5H-benzo[7]annulen-7-yl]-3-oxa-6-azabicyclo[3.1.1]heptane], the IC50 is 100 to 1000 nM in assay [1] and below 100 nM in assay [2].
